Assay results published in publication PMC12597212, “Biaryl Phosphate‐Based Inhibitors of the Transcription Factor STAT4” (Chemmedchem, 2025).

Tests used:
STAT4 SH2 domain = target: T1, STAT4 SH2 domain (Homo sapiens, UniProt Q14765); assay: Competitive fluorescence polarization (FP) assay, STAT4; format: binding; conditions: for IC50: 28 nM STAT4, 10 nM tracer peptide; for Ki: Ki calculated from IC50, mean ± SD, n = 3
T1 sequence (Q14765 1-748): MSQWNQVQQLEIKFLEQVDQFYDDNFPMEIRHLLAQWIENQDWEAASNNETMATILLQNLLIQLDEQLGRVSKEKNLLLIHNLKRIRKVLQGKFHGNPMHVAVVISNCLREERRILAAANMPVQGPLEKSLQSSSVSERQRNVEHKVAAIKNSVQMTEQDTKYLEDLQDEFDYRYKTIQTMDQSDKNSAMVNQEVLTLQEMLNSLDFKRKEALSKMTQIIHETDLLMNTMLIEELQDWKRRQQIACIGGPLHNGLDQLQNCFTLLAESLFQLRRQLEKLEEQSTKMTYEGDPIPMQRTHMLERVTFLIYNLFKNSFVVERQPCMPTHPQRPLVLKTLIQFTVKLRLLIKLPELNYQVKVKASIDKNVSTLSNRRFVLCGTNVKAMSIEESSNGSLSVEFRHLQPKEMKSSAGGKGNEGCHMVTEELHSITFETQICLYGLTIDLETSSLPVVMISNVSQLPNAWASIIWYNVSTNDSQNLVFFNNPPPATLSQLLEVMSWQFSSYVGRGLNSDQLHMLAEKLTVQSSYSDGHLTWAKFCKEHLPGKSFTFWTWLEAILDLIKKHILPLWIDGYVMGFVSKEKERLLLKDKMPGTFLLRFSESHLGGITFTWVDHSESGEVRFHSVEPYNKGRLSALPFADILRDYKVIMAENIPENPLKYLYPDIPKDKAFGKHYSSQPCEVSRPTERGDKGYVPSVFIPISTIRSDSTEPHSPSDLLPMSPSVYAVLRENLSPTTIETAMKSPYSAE
Procedure: (§1) Fluorescence polarization assays
Competitive fluorescence polarization assays were carried as previously described.[1] Proteins […]
fluorescent-labeled peptides were used as tracers: 5-carboxyfluorescein-GpYLPQNID-OH for STAT4; 5-carboxyfluorescein-GpYDKPHVL for STAT1; 5-carboxyfluorescein-GpYLPQTV-NH2 for STAT3; 5-carboxyfluorescein-GpYLVLDKW for STAT5a/b, and 5-carboxyfluorescein- […]
mM Tris (pH 8.0), 50 mM NaCl, 1 mM EDTA, 1 mM DTT, 0.1 % Nonidet P-40 substitute, 2 %
DMSO. Proteins and test compound were incubated for 1 h at room temperature before the […]
(1 picture or pasted object on this page, not shown here) […]
fluorescent-labeled peptide was added. Samples were transferred to 384-well microtiter plates and fluorescence polarization was read after an additional 60 min of incubation time.
Experiments were carried out in triplicate. Percent binding was calculated based on a logarithmic curve fit using OriginPro 8G software. Conversion of IC50 values to Ki-values was achieved using the published equation[2] embedded in the corresponding Excel spread sheet […]
https://websites.umich.edu/~shaomengwanglab/software/calc_ki/ind ex.html.
(§2) Error bars represent standard deviations. […]
(§3) Experiments were carried out in triplicate. […]

STAT6 = target: T2, STAT6 (Homo sapiens, UniProt P42226); assay: Competitive fluorescence polarization (FP) assay, STAT6; format: binding; conditions: for IC50: 106 nM STAT6, 10 nM tracer peptide; for Ki: Ki calculated from IC50, mean ± SD, n = 3
T2 sequence (P42226 1-847): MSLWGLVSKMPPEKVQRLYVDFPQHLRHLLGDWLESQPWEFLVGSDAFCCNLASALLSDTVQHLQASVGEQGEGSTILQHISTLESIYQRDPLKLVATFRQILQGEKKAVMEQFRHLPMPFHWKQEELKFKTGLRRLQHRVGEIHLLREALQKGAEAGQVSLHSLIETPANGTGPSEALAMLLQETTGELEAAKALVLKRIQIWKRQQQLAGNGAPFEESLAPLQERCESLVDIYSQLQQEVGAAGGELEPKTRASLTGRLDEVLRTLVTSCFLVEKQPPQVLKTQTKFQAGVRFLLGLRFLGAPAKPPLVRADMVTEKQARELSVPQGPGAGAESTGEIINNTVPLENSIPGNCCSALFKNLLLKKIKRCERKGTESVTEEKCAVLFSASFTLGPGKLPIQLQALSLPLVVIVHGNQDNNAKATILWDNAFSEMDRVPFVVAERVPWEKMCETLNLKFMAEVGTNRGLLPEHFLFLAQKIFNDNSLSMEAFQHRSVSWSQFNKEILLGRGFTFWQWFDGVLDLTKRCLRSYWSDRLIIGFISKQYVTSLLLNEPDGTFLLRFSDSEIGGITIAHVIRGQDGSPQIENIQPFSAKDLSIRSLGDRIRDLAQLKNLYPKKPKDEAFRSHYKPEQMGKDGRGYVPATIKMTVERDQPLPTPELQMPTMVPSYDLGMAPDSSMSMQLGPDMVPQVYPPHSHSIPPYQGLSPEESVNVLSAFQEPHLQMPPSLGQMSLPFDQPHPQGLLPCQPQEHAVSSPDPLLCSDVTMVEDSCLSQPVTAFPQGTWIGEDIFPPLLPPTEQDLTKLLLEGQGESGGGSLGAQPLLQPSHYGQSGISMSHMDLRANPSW
Procedure: as §1
STAT4; 5-carboxyfluorescein-GpYDKPHVL for STAT1; 5-carboxyfluorescein-GpYLPQTV- […]
(§4) fluorescent-labeled peptide was added. Samples were transferred to 384-well microtiter plates […]
(§5) Experiments were carried out in triplicate. Percent binding was calculated based on a logarithmic curve fit using OriginPro 8G software. Conversion of IC50 values to Ki-values was […]
as §2, §3

STAT4 = target: T3, STAT4 (Homo sapiens, UniProt Q14765); assay: Isothermal titration calorimetry (ITC), binding to STAT4; conditions: 10 µM STAT4, 100 µM ligand, 25 °C, 10 mM Tris pH 8.0, 50 mM NaCl, 1 % DMSO; n = 3
T3 construct: 6xHis; made in house
T3 sequence (Q14765 1-748): T1 sequence (Q14765 1-748)
Procedure: as §4, §5
Error bars represent standard deviations.
Isothermal Titration Calorimetry […]
dialysis tubing with a 50 kDa cut-off. ITC experiments were performed using a VP-ITC Micro […]
ITC buffer (final ligand concentration: 100 µM). 1 % (v/v) DMSO was added to the buffers […]
detection of dilution heat. Proteins were degassed before the experiments using a ThermoVac sample degassing station. […]
site binding model was used for data fitting. Figures were generated using GUSSI. Experiments were carried out in triplicate.
General synthetic methods
Method 1: Suzuki coupling […]
three times with ethyl acetate. The combined organic layers were washed with water, after which they were dried over Na2SO4 and filtered. The volatiles were removed under reduced

Structure (SMILES)	IC50 (STAT4 SH2 domain)	Ki (STAT4 SH2 domain)	IC50 (STAT6)	Ki (STAT6)	Kd (STAT4)
O=P(O)(O)Oc1ccc(-c2ccsc2)cc1 [8a]	1.2 µM	0.56 ± 0.06 µM	15.8 µM	7.8 ± 0.7 µM	–
O=P(O)(O)Oc1ccc(-c2cccs2)cc1 [8b]	1.09 µM	0.5 ± 0.03 µM	19 µM	9.4 ± 0.3 µM	–
O=P(O)(O)Oc1ccc(-c2nccs2)cc1 [8c]	8.8 µM	4.1 ± 0.2 µM	112 µM	55 ± 1 µM	–
Cc1cc(-c2ccc(OP(=O)(O)O)c(F)c2)cs1 [8f]	0.37 µM	0.18 ± 0.03 µM	34 µM	17 ± 2 µM	3.1 ± 1 µM
O=P(O)(O)Oc1ccc2c(c1)Cc1ccccc1-2 [compound 11]	1.52 µM	0.61 ± 0.03 µM	23 µM	12 ± 1 µM	–
O=P(O)(O)Oc1ccc2c(c1)oc1ccccc12 [compound 12]	1.78 µM	0.71 ± 0.08 µM	53 µM	26 ± 4 µM	–
